The numbers were not newly measured in the CATMoS acute toxicity set (Mansouri et al. 2021), which cites them from elsewhere.

Values joined by “and” are separate entries in the source; they are usually repeats but may differ in a detail not shown here. Equal entries are not always repeated.

What is called LD50 is the dose expected to kill half of the subjects tested.

The nature of this series: rat acute oral toxicity. The following applies: in vivo.
For the molecule `O=P(CCn1c(Cc2ccccc2)nc2ccccc21)(OCCCl)OCCCl`, the LD50 is 6200 mg/kg.

On to `C[Si]1(C)N[Si](C)(C)N[Si](C)(C)N[Si](C)(C)N1`, for which the LD50 is 100 mg/kg.

Turning to `Nc1nc2cc(Cl)c(Br)cc2o1`, the 50% lethal dose (LD50) was 140 mg/kg.

As for `CC1(C)CC(NCCC(=O)NC2CC(C)(C)NC(C)(C)C2)CC(C)(C)N1`, the LD50 is 4180 mg/kg.

For `CC1CN(C2CCCCCCCCCCC2)CC(C)O1` (stereo unspecified), the LD50 was 2640 mg/kg and 2500 mg/kg.

As for `O=C(COc1ccc(Cc2ccc(Cl)cc2)cc1)OCc1cccnc1`, the LD50 was 2700 mg/kg.

With `COC(=O)Cc1ccccc1`, the 50% lethal dose (LD50) is 2550 mg/kg.

In the case of `Cc1ccccc1C(=O)Nc1cccc(OC(C)C)c1`, the LD50 is 10000 mg/kg.

As to `ClCC1(CCl)COC1`, the LD50 was 600 mg/kg.

In the case of `OC1OCC2C1C1(Cl)C(Cl)=C(Cl)C2(Cl)C1(Cl)Cl` (stereo unspecified), the 50% lethal dose (LD50) was 1750 mg/kg.

In the case of `CCO[SiH](Cl)OCC`, the 50% lethal dose (LD50) is 6300 mg/kg.

`O=C(CN1CCNCC1)NC1CCCCC1`: the 50% lethal dose (LD50) is 3900 mg/kg.

For the molecule `C[C@H](CCC(=O)O)[C@H]1CC[C@H]2[C@@H]3C(=O)C[C@@H]4CC(=O)CC[C@]4(C)[C@H]3CC(=O)[C@]12C`, the median lethal dose (LD50) is 3760 mg/kg and 4000 mg/kg.

As to `OC/C=C/Cl`, the LD50 was 102 mg/kg.

For `CCC1(CC)Oc2cccc(OC(=O)N(C)C(C)=O)c2O1`, the median lethal dose (LD50) was 375 mg/kg.

As for `CNC(=O)Oc1cc([N+](C)(C)C)ccc1C`, the LD50 was 2.5 mg/kg.

For `CNC(=O)Oc1ccc(C)c(C)c1`, the LD50 was 290 mg/kg.

For the molecule `CC(C)n1nc(-c2cccc(Cl)c2Cl)c(N)nc1=N`, the LD50 was 229 mg/kg.

For `O=C1C(=O)c2ncccc2-c2cccnc21`, the median lethal dose (LD50) was 5 mg/kg.

As for `CCN(CC)CC#N`, the LD50 is 160 mg/kg.

As for `CCOC(=O)Cc1cccc2ccccc12`, the median lethal dose (LD50) is 3580 mg/kg.

For the molecule `CCCCN(CCCCO)N=O`, the median lethal dose (LD50) was 1800 mg/kg.

`CC1COCC(C)N1C(=O)C[n+]1ccc(-c2cc[n+](CC(=O)N3C(C)COCC3C)cc2)cc1` (stereo unspecified): the LD50 was 345 mg/kg.

Take `COP(=O)(CCC(=O)NCO)OC`: the LD50 was 13000 mg/kg.

For `CN(C)c1ccc(SC#N)cc1`, the LD50 was 500 mg/kg.

Regarding `CCOP(=S)(OCC)Oc1cc(C)nc(N(C)C)n1`, the LD50 was 125 mg/kg.

Turning to `C#CCSP(=O)(NC(=O)CC)OC` (stereo unspecified), the 50% lethal dose (LD50) is 500 mg/kg.

Regarding `C#CCOC(=O)CCCCC(=O)OCC#C`, the LD50 is 200 mg/kg.

In the case of `CCOC(=O)N1CC=Cc2ccccc21`, the 50% lethal dose (LD50) is 195 mg/kg.

For the molecule `Cn1c(=O)c2c(ncn2CCCCCN2CCN(c3cccc(C(F)(F)F)c3)CC2)n(C)c1=O`, the LD50 is 660 mg/kg.

Consider `ClC1=C(Cl)C2(Cl)C3C4C=CC(O4)C3C1(Cl)C2(Cl)Cl` (stereo unspecified), for which the LD50 is 68 mg/kg.

With `Sc1nc2ccccc2s1`, the 50% lethal dose (LD50) is 100 mg/kg.

With `CC1NC(=O)c2ccccc2O1` (stereo unspecified), the LD50 is 1020 mg/kg.

On to `ClC1=C(Cl)[C@]2(Cl)[C@H]3[C@H]([C@H]4C=C[C@H]3C4)[C@@]1(Cl)C2(Cl)Cl`, for which the 50% lethal dose (LD50) is 7 mg/kg.

Turning to `CCCCCCCCCc1ccc(C)cc1O`, the 50% lethal dose (LD50) was 4000 mg/kg.

Take `C=CCOc1ccc(C2=C(c3ccccc3)C(C)(C)Oc3cc(OC)ccc32)cc1`: the 50% lethal dose (LD50) was 500 mg/kg.

As for `CC(=O)c1ccc(O)c(C(N)=O)c1`, the LD50 was 1700 mg/kg.

Take `CCC(=O)c1ccc2c(c1)N(CC(C)N(C)C)c1ccccc1S2` (stereo unspecified): the 50% lethal dose (LD50) is 500 mg/kg.

On to `C1COCCO1`, for which the LD50 is 4200 mg/kg.

In the case of `COc1ccc(CN2CCNCC2)c(OC)c1OC`, the LD50 was 1700 mg/kg.

Take `C=CSC=C`: the LD50 was 170 mg/kg.

As for `CCOP(=S)(OCC)Oc1ccc(SC)c(C)c1`, the LD50 is 14 mg/kg.

For `CCN(CCNS(C)(=O)=O)c1ccc(N)c(C)c1`, the LD50 was 400 mg/kg.

Take `Cc1cccc(N2CC(CO)OC2=O)c1` (stereo unspecified): the LD50 is 1220 mg/kg.

In the case of `CC(N)C1(C)CCCO1` (stereo unspecified), the 50% lethal dose (LD50) was 130 mg/kg.

As to `CN1CCN(CCCN2c3ccccc3Sc3ccc(Cl)cc32)CC1`, the LD50 was 1800 mg/kg.

On to `Clc1ccc(Sc2cc(Cl)c(Cl)cc2Cl)cc1`, for which the median lethal dose (LD50) was 3960 mg/kg.

On to `CNC(=O)O[C@@H]1C[C@H](C)CC[C@H]1C(C)C`, for which the median lethal dose (LD50) was 250 mg/kg.

In the case of `CC(C)(C)[C@@H](O)[C@@H](Cc1ccc(Cl)cc1)n1cncn1` (single isomer, unassigned), the median lethal dose (LD50) was 1300 mg/kg.

Regarding `CSC(C)=NOC(=O)N(C)SN(C)C(=O)Oc1ccc(C(C)(C)c2ccc(OC(=O)N(C)SN(C)C(=O)ON=C(C)SC)cc2)cc1`, the 50% lethal dose (LD50) was 508 mg/kg.

For the molecule `O=C(Cc1ccc(-c2ccccc2)cc1)OCCF`, the LD50 is 6 mg/kg.

With `CCSCc1cnc(C)c(O)c1CO`, the median lethal dose (LD50) was 3770 mg/kg.

With `C[C@]12C=CC(=O)C=C1CC[C@@H]1[C@@H]2[C@@H](O)C[C@@]2(C)[C@H]1CC[C@]2(O)C(=O)COC(=O)CCCc1ccc(N(CCCl)CCCl)cc1`, the LD50 was 530 mg/kg.

As to `CCOC(C(=O)N(C)CCN(C)C)(c1ccccc1)c1ccccc1`, the LD50 was 565 mg/kg.

For `COCCCOCC(C)OCCCOC(=O)c1ccccc1` (stereo unspecified), the median lethal dose (LD50) was 5480 mg/kg.

Turning to `CCCCC(=O)CC`, the 50% lethal dose (LD50) was 2760 mg/kg.

`CC(C)=C1CCC(C)CC1=O` (stereo unspecified): the LD50 is 470 mg/kg.

Consider `COc1ccc(CC2NCCc3cc(OC)c(OC)cc32)cc1OC` (stereo unspecified), for which the LD50 is 700 mg/kg.

In the case of `Cc1ccc(N)cc1[N+](=O)[O-]`, the 50% lethal dose (LD50) is 6860 mg/kg.

Turning to `O=c1[nH]c2ccccc2n1CCCN1CCN(C(c2ccccc2)c2ccccc2)CC1`, the LD50 is 1410 mg/kg.

For the molecule `COP(=S)(OC)SCn1ncccc1=O`, the median lethal dose (LD50) is 3.5 mg/kg.
